In patent US7208154B2, “Methods and compositions for the treatment of MHC-associated conditions” (Regents of the University of Michigan, priority 2002, dated 2007):

Legend:
[1] = test system: Human fibroblastoid M1 cells; experiment: NO production (fluorometric nitrate/nitrite DAN assay) in M1 cells stimulated with bead-bound peptide; assay type: cell-based; conditions: for Block of NO induction by shared epitope-expressing peptide 65–79*0401: then bead-bound 65–79*0401 for 1–30 min
Experimental: DKCLA [SEQ ID NO: 16] binds to calreticulin, and inhibits binding of shared epitope-expressing peptides which trigger pro-oxidative signaling (FIG. 9). In follow up experiments the functional activity of DKCLA [SEQ ID NO: 16] was determined by measuring its effect on NO production by shared epitope-expressing peptides (i.e. 65–79*0401) and a control peptide, 65–79*0402. Human fibroblastoid M1 cells were pre-incubated overnight with or without 50 µg/ml of DKCLA. Subsequently culture medium was changed to NO assay buffer (20 mM Tris, pH7.6, 100 mM NaCl, 0.1 mM EDTA), and cells were stimulated for 1–30 min with Sepharose bead-bound peptide 65–79*0401 or control peptide 65–79*0402. At different time points, cultures were collected and NO levels were measured. Briefly, supernatants were collected and spun down to remove cell debris. Nitrate in the supernatant were first transformed to nitrite by incubation with nitrate reductase for 60 min in room temperature. Then, DAN was added to yield fluorescent 2,3-naphthotriazole. Fluorescence was measured with a Perkin-Elmer Fusion™ Universal Microplate Analyzer, using a wavelength excitation of 375 nm and an emission wavelength of 415 nm.
The nitrite and nitrate assay was a modified method from fluorometric determination of nitrite [Thomas Pet al. Anal. Biochem., 214:11–16, (1993), Miles AM et al. Methods 7: 40–47, (1995)]. Cell culture medium was changed to NO assay buffer (20mM Tris, pH7.6, 100 mM NaCl, 0.1 mM EDTA) and was treated by bead bound peptides. After treatment, supernatant was spun down to remove cell debris. Nitrate in the supernatant was first transformed to nitrite by incubation with Nitrate Reductase for 60min in room temperature. Then 2,3-diaminonaphthalene (DAN) was added to yield fluorescent 2,3-naphthotriazole. Fluorescence was measured by a FUSION™ Universal Microplate Analyzer with excitation at 375 nm and emission at 415 nm.

[2] = target: T1, calreticulin (Homo sapiens, UniProt P27797); experiment: Competitive inhibition of shared epitope peptide binding to calreticulin (Biacore); set-up: GST (cleaved yes); made in house; host or cells: E. coli (strain provided by Dr. Michalak)
T1 sequence (P27797 18-417): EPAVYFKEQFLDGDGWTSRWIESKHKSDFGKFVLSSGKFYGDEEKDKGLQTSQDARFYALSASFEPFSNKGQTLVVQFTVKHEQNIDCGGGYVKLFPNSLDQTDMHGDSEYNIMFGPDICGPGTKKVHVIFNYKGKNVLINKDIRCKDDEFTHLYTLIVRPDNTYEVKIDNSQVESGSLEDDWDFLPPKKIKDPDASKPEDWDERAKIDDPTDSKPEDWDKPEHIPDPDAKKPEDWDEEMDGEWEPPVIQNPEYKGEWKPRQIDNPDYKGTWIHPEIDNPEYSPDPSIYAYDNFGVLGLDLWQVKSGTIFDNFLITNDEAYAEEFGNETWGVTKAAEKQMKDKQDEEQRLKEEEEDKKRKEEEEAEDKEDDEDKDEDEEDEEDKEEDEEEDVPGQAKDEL
Experimental: Prior to use, biosensor chips CM5 were docked into a Biacore® 2000 and preconditioned in water at 100 μl/min by applying two consecutive 20-μl pulses of 50 mM NaOH, then 10 mM HCl, and finally 0.1% SDS. Calreticulin was immobilized on CM5 surface by standard primary amine coupling [Lofas S et al. Biosensors & Bioelectronics, 10: 813–822, (1995), Johnsson B et al. J Mol Recognit., 8: 125–131, (1995), Karlsson R et al. J. Immunol. Methods, 200:121–133. (1997)]. Immobilizations were conducted at 25° C. in HBS-EP (10 mM HEPES, pH7.4, 150 mM NaCl, 1 mM EDTA, 0.005% Surfactant P-20), with a flow of 10 μl/min. The CM5 surface was activated by 7 min injection of 200 mM EDC/50 mM NHS to prepare a high-capacity surface, with manual injection of 100 μg/ml calreticulin until 5500 RU level was approached. Then 100 μl of 1M ethanolamine was used to block remaining activated group.
Calreticulin and peptide binding were performed at 25° C. in binding buffer (10 mM HEPES, pH8.0, 50 mM KCl, 0.5 mM CaCl2, 1% Triton-X100), with a flow rate of 10 μl/min. Peptides in the analyte ranged in concentration from 25–180 μM. Binding assays were repeated at least 3 times. Kinetic analysis was performed using Kinetic separate ka/kd fitting in BIA evaluation 3.0 software.
In order to determine whether DKCLA [SEQ ID NO: 16] and shared epitope-expressing peptides compete for the same binding site on calreticulin, competitive binding studies were performed in which the calreticulin binding activity of 14-mer shared epitope-expressing peptides was determined in the presence or absence of different pentapeptides. […] Thus, a Q70D substitution produces a shared epitope-antagonistic effect.

[3] = target: T1, calreticulin; experiment: Blocking of shared epitope peptide-triggered signaling (cAMP-inhibitory effect, genoprotection) in M1 cells; assay type: cell-based; set-up: endogenous in cells; host or cells: M1 human fibroblastoid cells; conditions: M1 cells pre-incubated or transfected
Experimental: Finally, in order to determine whether these neuroprotective peptides transduce their signaling through calreticulin, two complementing protocols were executed: i) Inhibition of peptide-calreticulin interaction using anti-calreticulin antibodies, or ii) blocking calreticulin expression with antisense oligonucleotides (as shown in FIG. 13C and FIG. 13D).
M1 cells were cultured in 6-well plate to 60–70% confluency. M1 cells were treated by 0.2 μM antisense oligonucleotide for 24 to 48 hr, using Lipofectin as a carrier. Calreticulin expression levels were determined by Western-blot and flow cytometry, using anti-calreticulin antibodies. Polyclonal rabbit anti-human calreticulin antibodies were obtained from ABR, Golden, CO.

[4] = M1 cells pre-incubated overnight with 50 µg/ml

Substance: Gln Lys Arg Ala Glu (QKRAE) [pentapeptide with A74E substitution]
- Block of NO induction by shared epitope-expressing peptide 65–79*0401 [1, 4]: did not inhibit 65–79*0401-triggered NO production
- Inhibition of 65–79*0401 binding to calreticulin ([2]; Biacore assay, control experiment under identical conditions): did not inhibit 65–79*0401 binding to calreticulin

Substance: DKCLA [Asp Lys Cys Leu Ala]
- Effect on baseline NO levels [1, 4]: no measureable effect
- Block of NO induction by shared epitope-expressing peptide 65–79*0401 [1, 4]: blocked NO induction
- Impact on NO levels with control peptide 65–79*0402 ([1]; bead-bound control peptide 65–79*0402): no impact
- Block of shared epitope peptide-triggered signaling / inhibitory effect on genoprotection [3]: prevented
- Block of 65–78*0401 binding to calreticulin ([2]; 14-mer peptide 65–78*0401): effectively and specifically blocked binding
- Block of 65–78*0404 binding to calreticulin ([2]; 14-mer peptide 65–78*0404): effectively and specifically blocked binding
- IC50, inhibition of 65–78*0401 binding to calreticulin ([2]; dose response analysis, FIG. 16C): low-υM range
- IC50, inhibition of 65–78*0404 binding to calreticulin ([2]; dose response analysis, FIG. 16D): low-υM range
